{
  "source": "patent US10641781B2",
  "about": "“Method, composition and device for sampling natriuretic peptides in a biological fluid” (CRIMSON U.S. ASSETS, LLC, priority 2008, dated 2020)",
  "key": {"BNP1-32 hydrolysis": {"tested_on": "BNP1-32 hydrolysis", "test": "BNP1-32 hydrolysis in heparin plasma treated with protease inhibitors, room temperature, MSIA", "type": "biochemical, human", "settings": "for effect on BNP hydrolysis: BNP1-32 10 ng/mL", "excerpt": "(§1) In order to observe, characterize and identify the BNP hydrolysis products a Mass Spectrometric Immunoassay (MSIA) was developed and employed in the analysis of BNP. This technique is broadly described in, e.g., Nelson et al. (1995) Anal. Chem. 67, 1153-1158; Tubbs et al. (2001) Anal. Biochem. 289, 26-35; Kiernan et al. (2002) Anal. Biochem. 301, 49-56; Niederkofler et al. (2003) J. Lipid Res. 44, 630-639 and U.S. Pat. Nos. 6,783,672; 6,974,704; 7,083,723; 7,083,724; 7,087,163; 7,087,164; 7,087,165; and 7,087,163. The basic methodology is described in the context of BNP although the technique is also applicable to ANP and other peptides of interest.\n(§2) Briefly, MSIA entails the use of affinity capture, to extract BNP and many of its' hydrolysis products for mass spectrometric detection, to observe and identify products of BNP hydrolysis. Therefore, synthesized BNP1-32 was added to room temperature plasma (from blood collected in heparinized blood collection tubes). At a several times post-spiking BNP1-32 into the plasma, aliquots of the spiked plasma were analyzed to monitor the progress of BNP1-32 hydrolysis. The results of performing a series of analyses on aliquots removed and analyzed every hour for up to six hours post-addition of BNP1-32 at 100 ng/mL are shown in FIG. 2. […] The last two species are indistinguishable in the chart due to similar amino acid compositions. […]\nNext, the individual protease inhibitors, including some of those included in protease inhibitor cocktail set III (EMD) were tested using the protocols described supra. Briefly, aliquots of heparin plasma were treated with each one of the protease inhibitors. To each aliquot of plasma, BNP1-32 was added at 10 ng/mL and incubated at room temperature. Aliquots were sequentially removed and analyzed for BNP hydrolysis.\nBriefly, aliquots of heparin plasma were treated with each one of these protease inhibitors. To each aliquot of plasma, BNP1-32 was added at 10 ng/mL and incubated at room temperature. Aliquots were sequentially removed and analyzed for BNP hydrolysis.\nFurther testing added to the list of inexpensive protease inhibitors effective in combination with AEB SF in avoiding adducts starting with benzamidine hydrochloride (Calbiochem catalog no. 199001). […] Briefly, aliquots of heparin plasma were treated with the protease inhibitor. To each aliquot of plasma, BNP1-32 was added at 10 ng/mL and incubated at room temperature. Aliquots were sequentially removed and analyzed for BNP hydrolysis.\nIn addition, PPACK I dihydrochloride (Calbiochem catalog no. 520222) and PPACK II trifluoroacetate salt (Calbiochem catalog no. 520219) were also tested at a concentration of 1 mM each. […]"}, "proteolysis of BNP": {"tested_on": "proteolysis of BNP", "settings": "sampled blood or plasma; cited from earlier work"}, "[1]": {"settings": "weak basic conditions (pH 8-9); cited from earlier work"}, "BNP hydrolysis [2]": {"tested_on": "BNP hydrolysis", "test": "BNP stability in plasma stored at -70 C, MSIA", "type": "biochemical, human", "settings": "tested on day of collection and six months later", "description": "The limited proteolysis prior to the addition of the protease inhibitors is preserved in the sample. The sampled plasma was assayed for the presence of BNP fragments on the day of collection and then six month later. […] This may reflect the presence of metalloproteinases in heparinized blood.\nTo examine this, BNP peptides corresponding to those previously identified as products resulting from the hydrolysis of BNP1-32 were synthesized and added to EDTA plasma treated with 10 mM AEBSF and 20 mM Benzamidine. An aliquot of the sample was analyzed for the added BNP peptides soon after the addition of the peptides to the plasma, while the rest of the plasma was stored at −70° C. for 7 weeks. After 7 weeks of storage the plasma was removed from the freezer, thawed and analyzed for the existence of the added BNP peptides."}, "BNP hydrolysis [3]": {"tested_on": "BNP hydrolysis", "test": "BNP hydrolysis in EDTA versus heparin plasma at room temperature, MSIA", "type": "biochemical, human", "settings": "plasma spiked with BNP1-32, room temperature, aliquots at 1 hour and 2 hours", "description": "Blood from a single individual was collected in both heparin and EDTA blood collection tubes. The collected blood was centrifuged to remove cellular components and the supernatant (plasma) was collected. To the EDTA and heparin plasma, BNP1-32 was added and incubated at room temperature with aliquots removed for analysis of BNP hydrolysis at 1 hour and 2 hours."}, "[4]": {"settings": "cited from earlier work"}, "[5]": {"test": "Time course of BNP1-32 hydrolysis in plasma without inhibitor, by mass spectrometric immunoassay (MSIA)", "type": "in vitro ADME, human", "settings": "heparin plasma, no inhibitor, room temperature, BNP1-32 at 100 ng/mL, four hours after addition", "excerpt": "as §1, §2"}, "[6]": {"settings": "after separation of plasma from whole blood; cited from earlier work"}},
  "note": "“Also recorded” adds a separate entry of the source. Structures can show the parent of a compound that is named as a salt. Where a SMILES comes first, the peptide text is derived from it. [ ]: non-standard residue; d: D form. The star is where a group is joined. Sta = CC(C)C[C@H](N)[C@@H](O)CC(=O)O; Isovaleryl = CC(C)CC(=O)*; CH2Cl = ClC*",
  "data": [
    {"compound": "NC(N)=NCCC[C@H](NC(=O)[C@H](Cc1ccccc1)NC(=O)[C@H](N)Cc1ccccc1)C(=O)CCl", "note": "[PPACK II] (H-[dF]-Phe-Arg-CH2Cl)", "values": [
      {"measurement": "effect on BNP hydrolysis", "setting": "BNP1-32 hydrolysis; inhibitor at 1 mM", "result": "slowed the rate of BNP hydrolysis; also recorded: reduced BNP proteolysis"}
    ]},
    {"compound": "NC(N)=NCCC[C@H](NC(=O)[C@@H]1CCCN1C(=O)[C@H](N)Cc1ccccc1)C(=O)CCl", "note": "[PPACK]", "values": [
      {"measurement": "effectiveness in arresting proteolysis of BNP", "setting": "proteolysis of BNP", "result": "most effective in arresting proteolysis of BNP"}
    ]},
    {"compound": "Cl.Cl.NC(N)=NCCC[C@H](NC(=O)[C@@H]1CCCN1C(=O)[C@H](N)Cc1ccccc1)C(=O)CCl", "note": "[PPACK I]", "values": [
      {"measurement": "effect on BNP hydrolysis", "setting": "BNP1-32 hydrolysis; inhibitor at 1 mM", "result": "slowed the rate of BNP hydrolysis; also recorded: reduced BNP proteolysis"}
    ]},
    {"compound": "CC(C)CC(=O)N[C@H](C(=O)N[C@H](C(=O)N[C@@H](CC(C)C)[C@@H](O)CC(=O)N[C@@H](C)C(=O)N[C@@H](CC(C)C)[C@@H](O)CC(=O)O)C(C)C)C(C)C", "note": "[Pepstatin A] (Isovaleryl-VV[Sta]A[Sta]-OH)", "values": [
      {"measurement": "effect on BNP hydrolysis", "setting": "BNP1-32 hydrolysis; inhibitor at 0.1 mM", "result": "little or no effect on BNP proteolysis; also recorded: did not appreciably prevent the hydrolysis of BNP"}
    ]},
    {"compound": "Cl.NCCc1ccc(S(=O)(=O)F)cc1", "note": "[AEBSF, 4-(2-Aminoethyl) benzenesulfonyl fluoride hydrochloride]", "values": [
      {"measurement": "hydrolysis of the inhibitor", "setting": "[1]", "result": "slow hydrolysis"},
      {"measurement": "effect on BNP hydrolysis", "setting": "BNP1-32 hydrolysis; inhibitor at 1 mM, hydrochloride", "result": "slowed the hydrolysis of BNP; also recorded: reduced BNP proteolysis"},
      {"measurement": "effect on BNP hydrolysis", "setting": "BNP1-32 hydrolysis; inhibitor at 2.5 mM, hydrochloride", "result": "almost completely inhibited the hydrolysis of BNP; also recorded: reduced BNP proteolysis"},
      {"measurement": "effect on BNP hydrolysis", "setting": "BNP1-32 hydrolysis; inhibitor at 5 mM, hydrochloride", "result": "almost completely inhibited the hydrolysis of BNP; also recorded: reduced BNP proteolysis"}
    ]},
    {"compound": "CC(=O)N[C@@H](CC(C)C)C(=O)N[C@@H](CC(C)C)C(=O)N[C@H](C=O)CCCNC(=N)N", "note": "[Leupeptin]", "values": [
      {"measurement": "effect on BNP hydrolysis", "setting": "BNP1-32 hydrolysis; inhibitor at 0.1 mM", "result": "slowed the hydrolysis of BNP"},
      {"measurement": "effect on BNP hydrolysis", "setting": "BNP1-32 hydrolysis; inhibitor at 1 mM", "result": "slow BNP proteolysis"}
    ]},
    {"compound": "N=C(N)c1ccccc1", "note": "[Benzamidine hydrochloride, Benzamidine]", "values": [
      {"measurement": "effectiveness in slowing BNP hydrolysis relative to other inhibitors", "setting": "BNP1-32 hydrolysis; 1 mM", "result": "better than PPACK I and PPACK II, but it was not as effective as AEBSF"},
      {"measurement": "effect on BNP hydrolysis", "setting": "BNP1-32 hydrolysis; inhibitor at 1 mM", "result": "slowed the hydrolysis of BNP"},
      {"measurement": "effect on BNP hydrolysis", "setting": "BNP1-32 hydrolysis; inhibitor at 1 mM, listed as Benzamidine", "result": "reduced BNP proteolysis"}
    ]},
    {"compound": "CC(C)C[C@H](NC(=O)[C@@H](O)[C@H](N)Cc1ccccc1)C(=O)O", "note": "[Bestatin]", "values": [
      {"measurement": "effect on BNP hydrolysis", "setting": "BNP1-32 hydrolysis; inhibitor at 0.5 mM", "result": "little or no effect on BNP proteolysis; also recorded: did not appreciably prevent the hydrolysis of BNP"}
    ]},
    {"compound": "O=C([O-])CN(CCN(CC(=O)[O-])CC(=O)O)CC(=O)[O-].[Na+].[Na+].[Na+]", "note": "[EDTA, ethylenediamine tetracetic acid]", "values": [
      {"measurement": "BNP hydrolysis in EDTA plasma without protease inhibitors", "setting": "BNP hydrolysis [2]", "result": "the hydrolysis stops at the formation of the BNP3-32; also recorded: proteolysis of BNP1-32 leading to the formation of BNP3-32"},
      {"measurement": "effect of anti-coagulant on BNP hydrolysis", "setting": "BNP hydrolysis [3]", "result": "BNP hydrolysis stops with the formation of the BNP3-32; also recorded: reduce BNP hydrolysis"}
    ]},
    {"compound": "Heparin", "values": [
      {"measurement": "effect of anti-coagulant on BNP hydrolysis", "setting": "BNP hydrolysis [3]", "result": "relatively ineffective in preventing BNP proteolysis"},
      {"measurement": "effect of anti-coagulant on BNP hydrolysis", "setting": "BNP hydrolysis [3]; listed as heparin", "result": "progress towards the production of BNP hydrolysis products smaller than the BNP3-32"}
    ]},
    {"compound": "CC(C)C[C@H](NC(=O)[C@H]1O[C@@H]1C(=O)O)C(=O)NCCCCN=C(N)N", "note": "[E64]", "values": [
      {"measurement": "effect on BNP hydrolysis", "setting": "BNP1-32 hydrolysis; inhibitor at 1 mM", "result": "little or no effect on BNP proteolysis; also recorded: did not appreciably prevent the hydrolysis of BNP"}
    ]},
    {"compound": "BNP1-32: 32-amino acid B-type natriuretic peptide; synthesized BNP1-32 spiked into plasma", "values": [
      {"measurement": "half-life (t1/2) in vivo", "setting": "[4]", "result": "approximately 20 minutes"},
      {"measurement": "hydrolysis of BNP1-32 in plasma", "setting": "[5]", "result": "all of the BNP1-32 appears to have been processed into smaller peptides"},
      {"measurement": "time within which BNP is proteolyzed in vitro", "setting": "[6]", "result": "≤ 24", "unit": "h"}
    ]}
  ]
}
